Consider five compounds from article PMC7344333 (Journal of medicinal chemistry, 2019).

Data set [1] concerns LPA1. As to conditions: read-out: EC50 at LPA1; cited from earlier work.
The test system of data set [2] is LPA2. As to conditions: read-out: EC50 at LPA2; cited from earlier work.
In data set [3] the target is LPA1 receptor (Homo sapiens, UniProt Q92633). In words: Ca2+ mobilization assay in LPA1 stably transfected RH7777 cells. As to conditions: for LPA1 agonist activity (in words): highest concentration tested 10 μM. The data set is classed as cell-based. (In general: A change in cytosolic calcium serves as a functional read-out for many receptors and channels.)
Sequence of LPA1 receptor (Q92633 whole entry): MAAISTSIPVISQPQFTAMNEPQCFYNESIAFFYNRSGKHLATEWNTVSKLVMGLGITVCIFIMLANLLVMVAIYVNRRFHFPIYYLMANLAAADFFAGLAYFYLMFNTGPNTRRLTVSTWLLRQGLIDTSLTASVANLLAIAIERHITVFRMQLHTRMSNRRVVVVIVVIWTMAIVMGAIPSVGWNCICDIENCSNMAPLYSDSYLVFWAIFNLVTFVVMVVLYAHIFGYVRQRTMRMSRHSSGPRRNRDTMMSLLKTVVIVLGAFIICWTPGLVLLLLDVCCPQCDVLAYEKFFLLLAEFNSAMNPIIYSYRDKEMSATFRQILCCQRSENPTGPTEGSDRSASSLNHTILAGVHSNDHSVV
Data set [4] concerns dorsal root ganglia (DRG) neurons. In words: calcium microfluorography in primary DRG sensory neurons. The data set is classed as cell-based, rat. As to conditions: two repetitive applications of 10 μM.
Data set [5] is described as follows: stability studies in PBS and cellular culture medium. It counts as physicochemical. As to conditions: up to 8 hours at 37 °C.
Data set [6] has as its system B103 neuroblastoma cells overexpressing LPA1 receptor. Description: transwell migration assay. As to conditions: 1 μM in lower chamber, 5 h. It counts as cell-based.
Data set [7] has as its system mice. In words: open field test, exploratory and locomotor activity. It counts as in vivo, mouse. As to conditions: at the selected dose (10 mg/kg i.p.).
In data set [8] the test system is mice. In words: acetic acid-induced writhing assay. The data set is classed as in vivo, mouse. In general terms: An intraperitoneal irritant provokes the stretching counted in writhing tests.
In data set [9] the test system is B103 neuroblastoma cells overexpressing EGFP-LPA1 receptor. In words: neurite retraction assay. The data set is classed as cell-based. As to conditions: 15 minutes treatment.
Data set [10] deals with mice with SNI. Description: spared nerve injury. The data set is classed as in vivo, mouse. As to conditions: 10 mg/kg i.p. daily; 3, 10 and 21 days post-surgery, vs vehicle.
The subject of data set [11] is DRG neurons (nociceptors). Description: multielectrode array. As to conditions: 10 μM, two consecutive pulses. It counts as cell-based, rat.
The subject of data set [12] is EGFP-LPA1 fusion receptor. Description: LPA1 receptor internalization assay. As to conditions: 1 μM.

A word on the EC50: it is the concentration that produces a half-maximal response. Take `CCCCCCCC/C=C\CCCCCCCC(=O)NCCC(=O)P(=O)(O)O` [Compound 2]: the EC50 in data set [1] is 221 nM; in [2], 1090 nM.
As to `CCCCCCCCCC/C=C\CCCCCCCC(=O)OC[C@@H](O)COP(=O)(O)O` [Compound 16, (2R)-2-Hydroxy-3-(phosphonooxy)propyl (9Z)-icos-9-enoate], the “LPA1 agonist activity (in words)” value in data set [3] is “inactive”.
As to `O=C(CCCCCCCc1ccccc1)OC[C@@H](O)COP(=O)(O)O` [Compound 19, (2R)-2-Hydroxy-3-(phosphonooxy)propyl 8-phenyloctanoate], in data set [3], the “LPA1 agonist activity (in words)” value is “inactive”.
As to `O=C(CCCCCCCCCc1ccccc1)O[C@H](CBr)COP(=O)(O)O` [Compound (S)-17, (2S)-1-Bromo-3-(phosphonooxy)propan-2-yl 10-phenyldecanoate], in [4], the “Ca2+ response on repeated application” value was “induced a reduction of the Ca^2+ responses”. In addition, the “compound remaining (stability)” value in data set [5] (PBS) and in data set [5] (culture media) was over 85% each time. The cell migration result in data set [6] was “induced cell migration”. In data set [7], the “exploratory or locomotor activity” value is on record as “did not induce any alteration in the exploratory or locomotor activity”. Further, in data set [8], the “number of writhes after acute single administration” value is on record as “increased the number of writhes in the first minutes after the administration”. Also, the neurite retraction entry in data set [9] is “induced neurite retraction”. Also, in data set [10], the mechanical nociceptive threshold result was “significantly superior compared to vehicle-treated mice”. Moreover, the “neuronal firing of action potentials on repeated application” value in data set [11] is given as “provoked the firing of action potentials that were attenuated upon a second instillation”.
The Emax is the maximal effect, on the per cent scale that the assay sets. Regarding `CCCCCCCC/C=C\CCCCCCCC(=O)OC[C@@H](O)COP(=O)(O)O` [LPA, 1-oleoyl-sn-glycerol-3-phosphate, reference compound], in [4], the “Ca2+ response on repeated application” value is given as “the Ca^2+ response is notably reduced in a second LPA application”. The “Ca2+ response relative to 10 μM ionomycin” value in data set [3] (10 μM LPA, positive control) was 30–33%. Moreover, in [3] (RH7777), the Emax at 10 µM turned out to be 100%. Also, in data set [12], the LPA1 internalization entry is listed as “the receptor is internalized”. In addition, in data set [11], the “neuronal firing of action potentials on repeated application” value is reported as “provoked the firing of action potentials that were attenuated upon a second instillation”.
